From PubChem BioAssay (NCI)
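Growth conditions: 96-well plates. Treatment: test compound, 48 hours, 5 concentrations. Analysis: linear interpolation between bracketing concentrations; unreached endpoints set to highest concentration. The concentration for full growth arrest is given as TGI.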

How the values were obtained:
Experiment in all cases: inhibition of tumour cell growth, NCI panel, 48 h
786-0 renal = system: 786-0 renal
SK-MEL-5 melanoma = system: SK-MEL-5 melanoma
A549 NSCLC = system: A549 NSCLC
SF-268 CNS = system: SF-268 CNS
OVCAR-5 ovarian = system: OVCAR-5 ovarian
UO-31 renal = system: UO-31 renal
OVCAR-8 ovarian = system: OVCAR-8 ovarian
RXF 393 renal = system: RXF 393 renal
TK-10 renal = system: TK-10 renal
CAKI-1 renal = system: CAKI-1 renal
SF-539 CNS = system: SF-539 CNS
HOP-62 NSCLC = system: HOP-62 NSCLC
UACC-257 melanoma = system: UACC-257 melanoma
CCRF-CEM leukemia = system: CCRF-CEM leukemia
COLO 205 colon = system: COLO 205 colon
NCI-H522 lung = system: NCI-H522 lung
RPMI-8226 leukemia = system: RPMI-8226 leukemia
DU-145 prostate = system: DU-145 prostate

Compound | TGI (786-0 renal) | TGI (SK-MEL-5 melanoma) | TGI (A549 NSCLC) | TGI (SF-268 CNS) | TGI (OVCAR-5 ovarian) | TGI (UO-31 renal) | TGI (OVCAR-8 ovarian) | TGI (RXF 393 renal) | TGI (TK-10 renal) | TGI (CAKI-1 renal) | TGI (SF-539 CNS) | TGI (HOP-62 NSCLC) | TGI (UACC-257 melanoma) | TGI (CCRF-CEM leukemia) | TGI (COLO 205 colon) | TGI (NCI-H522 lung) | TGI (RPMI-8226 leukemia) | TGI (DU-145 prostate)
COc1cc2c(oc(=O)c3cc4cc([Si](C)(C)C)oc4c(OC)c32)c2cccc(O)c12 | > 100 µM | > 100 µM | > 100 µM | > 100 µM | > 100 µM | > 100 µM | > 100 µM | > 100 µM | > 100 µM | > 100 µM | > 100 µM | > 100 µM | > 100 µM | > 100 µM | > 100 µM | > 100 µM | > 100 µM | 
Cc1c2ccncc2c(C)c2c1[nH]c1ccc(Oc3ccccc3)cc12 | 3.24 µM | 9.46 µM | 4.8 µM | > 28.4 µM | 3.94 µM | 35.2 µM | 3.48 µM | 3.84 µM | 22.9 µM | > 100 µM | 3.13 µM | 4.42 µM | 4.33 µM | 9.41 µM |  |  | 5.27 µM | 
O=C(O)CCCNc1ncc2c(n1)-c1ccccc1OC2 | > 100 µM | > 100 µM | > 100 µM | > 100 µM | > 100 µM | > 100 µM | > 100 µM | > 100 µM | > 100 µM | > 100 µM | > 100 µM | > 100 µM | > 100 µM | > 100 µM | > 100 µM | > 100 µM | > 100 µM | > 100 µM
Cc1ccc(/C=C/C(=O)c2sc(-n3nc(-c4ccccc4)cc3-c3ccccc3)nc2C)cc1 | > 100 µM | > 100 µM | > 100 µM | > 100 µM | > 100 µM | > 100 µM | > 100 µM | > 100 µM | > 100 µM | > 100 µM | > 100 µM | > 100 µM | > 100 µM | > 100 µM | > 100 µM | > 100 µM | > 100 µM | 
COCN(C)c1nc(N(C)C)nc(N(C)C)n1 | > 100 µM | > 100 µM | > 100 µM | > 100 µM | > 100 µM | > 100 µM | > 100 µM | > 100 µM | > 100 µM | > 100 µM | > 100 µM | > 100 µM | > 100 µM | > 100 µM | > 100 µM | 37 µM | > 100 µM | 
CCN(CC)C(=S)SCC(=O)Nc1nc2c(s1)CCCC2 | > 100 µM | 49.7 µM | > 100 µM | > 100 µM | > 100 µM | > 100 µM | > 100 µM |  | > 100 µM |  | > 100 µM | > 100 µM | > 100 µM | > 100 µM | > 100 µM | 65.3 µM | > 100 µM | 
c1ccc2c(c1)Cc1c(Cc3csc4ccccc34)ccc3cccc-2c13 | > 100 µM | > 100 µM | > 100 µM | > 100 µM | > 100 µM | > 100 µM | > 100 µM | > 100 µM |  |  | > 100 µM | > 100 µM | > 100 µM | > 100 µM | > 100 µM | > 100 µM | > 100 µM | 
COc1cc([C@@H]2c3cc4c(cc3[C@@H](OC(=O)c3cccc(N)c3)C3COC(=O)[C@@H]32)OCO4)cc(OC)c1O (stereo not given in full) | 28.9 µM | 14 µM | 25.9 µM | > 61.1 µM | 60.1 µM | 26.4 µM | > 100 µM | 83.5 µM | > 100 µM | 29.6 µM | 13.8 µM | 18 µM | > 77.3 µM | > 43 µM | > 45.6 µM |  | 43.9 µM | 
CN1C(=O)C(C(=O)Nc2ccccn2)C2C[C@@]1(C)Oc1ccccc12 (stereo not given in full) | > 100 µM | > 100 µM | > 100 µM | > 100 µM | > 100 µM | > 100 µM | > 100 µM | > 100 µM | > 100 µM | > 100 µM |  | > 100 µM | > 100 µM | > 100 µM | > 100 µM | > 100 µM | > 100 µM | > 100 µM
ClCC[N-]CC[N-]CCCl.ClCC[N-]CC[N-]CCCl.[O-][Cl+3]([O-])([O-])O.[Zn+2] | 39.1 µM | 56.1 µM | > 100 µM | 56.6 µM | 46.6 µM | > 72.5 µM | 45.4 µM | > 59.1 µM | > 71.1 µM | 39.7 µM | > 67.8 µM | > 100 µM | 63.2 µM | 82.3 µM | > 72.2 µM | 27.3 µM | > 100 µM | 
CC1(C)Cc2c(oc3ncnc(N)c23)CS1 | > 100 µM | > 100 µM | > 100 µM | > 100 µM | > 100 µM | > 100 µM | > 100 µM |  |  | > 100 µM | > 100 µM | > 100 µM | > 100 µM | > 100 µM | > 100 µM | > 100 µM | > 100 µM | 
COc1ccc(OC)c(NC(=O)C(=O)CC(=O)c2sc(-n3nc(-c4ccccc4)cc3-c3ccccc3)nc2C)c1 | > 100 µM |  | > 100 µM |  | > 100 µM | > 100 µM | > 100 µM | > 100 µM | > 100 µM | > 100 µM | > 100 µM | > 100 µM | > 100 µM | > 100 µM | > 100 µM | > 100 µM | > 100 µM | 
CC(=O)C1C(=O)C(=O)N(c2ccc([N+](=O)[O-])cc2)C1=O (stereo not given) | > 100 µM | > 100 µM | > 100 µM | > 100 µM | > 100 µM | > 100 µM | > 100 µM | > 100 µM | > 100 µM | > 100 µM | > 100 µM | > 100 µM | > 100 µM | > 100 µM | > 100 µM | > 100 µM |  | > 100 µM
COc1ccc(-c2csc(Cc3nc4c(Br)cc(Br)cc4c(=O)n3-c3ccc(OC)cc3)n2)cc1 | > 100 µM | 89.3 µM | > 100 µM |  | > 100 µM | > 100 µM | > 100 µM | > 100 µM | > 100 µM | > 100 µM |  | > 100 µM | > 100 µM | > 100 µM | > 100 µM |  |  | > 100 µM
